One may read the pIC50 as −log10 of the IC50, conventionally taken in molar units. Higher therefore signals a low IC50.

Each structure is given as a SMILES string. pIC50: −log10 of the molar value.

47 compounds from patent publication US10703764B2, “Benzopiperazine compositions as BET bromodomain inhibitors” (FORMA Therapeutics, Inc., priority 2013, dated 2020) can be followed below.

The target in one assay is T1, BRD4 BD2 (Homo sapiens, UniProt O60885).
T1 construct: made in house
Kind of assay: AlphaScreen binding assay, BRD4 Bromodomain 2. The essentials:
(§1)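 Compound dilution series were mixed with His-tagged BRD4 bromodomain and biotinylated tetra-acetylated H4 (1-21) peptide at pH 7.3 (BD1 and peptide at 50 nM, BD2 and peptide at 100 nM). Donor and acceptor beads were then added, and plates were equilibrated at least 1 h before reading. IC50 values were fitted with a four-parameter logistic model.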
A general note: Bead proximity is the source of the signal in Alpha formats.

The target of the next assay is T2, BRD4 BD1 (Homo sapiens, UniProt O60885).
T2 construct: made in house
Kind of assay: AlphaScreen binding assay, BRD4 Bromodomain 1. The essentials: as §1

As for `CC(=O)N1c2ccc(-c3ccc(S(=O)(=O)C(F)(F)F)cc3)cc2N(C(=O)c2ccco2)C[C@@H]1C` [Example I-866], the negative-log IC50 (pIC50) was 6.30 to 7.30 at BRD4 BD2 and 5.00 to 6.00 at BRD4 BD1.

For the compound `CC(=O)N1c2ccccc2N(Cc2ccc(F)cc2F)C[C@@H]1C` [Example I-897], the pIC50 on BRD4 BD2 is under 6.30; at BRD4 BD1, under 5.00.

For the compound `CC(=O)N1c2ccc(-c3cnc4ccccc4c3)cc2N(C(=O)c2ccco2)C[C@@H]1C` [Example I-823], the pIC50 on BRD4 BD2 was 6.30 to 7.30; on BRD4 BD1, 5.00 to 6.00.

As to `C[C@H]1CN(C(=O)c2ccco2)c2cc(-c3ccc(C(=O)N(C)C)cc3)ccc2N1C(=O)C(F)(F)F` [Example I-362], the pIC50 is under 6.30 at BRD4 BD2 and under 5.00 on BRD4 BD1.

Take `CC(C)OC(=O)N1C[C@H](C)N(C(=O)C2CC2)c2ccc(-c3cnn(CC#N)c3)cc21` [Example I-622]: the pIC50 at BRD4 BD2 is under 6.30; on BRD4 BD1, 5.00 to 6.00.

As to `CC(=O)N1c2ccccc2N(C(=O)c2cc3ccccc3s2)C[C@@H]1C` [Example I-746], the pIC50 is under 6.30 on BRD4 BD2 and under 5.00 at BRD4 BD1.

As to `CC(C)OC(=O)N1C[C@H](C)N(C(=O)C2CC2)c2ccc(-c3cnn(CC(=O)N4CCCCC4)c3)cc21` [Example I-614], the pIC50 at BRD4 BD2 is 6.30 to 7.30; on BRD4 BD1 it was 5.00 to 6.00.

Take `CC(=O)N1c2ccc(-c3cccc(-c4noc(C)n4)c3)cc2N(C(=O)c2ccco2)C[C@@H]1C` [Example I-402]: the pIC50 was over 7.30 at BRD4 BD2 and 5.00 to 6.00 on BRD4 BD1.

On to `CC(=O)N1c2ccc(-c3c[nH]nc3C(F)(F)F)cc2N(C(=O)OC(C)C)CC1C` (stereo not shown) [Example I-335], for which the negative-log IC50 (pIC50) on BRD4 BD2 was under 6.30; on BRD4 BD1, 5.00 to 6.00.

Turning to `CC(=O)N1c2ccc(-c3ccc(-c4cc(C(=O)O)[nH]n4)cc3)cc2N(C(=O)c2ccco2)CC1C` (stereo not shown) [Example I-421], the pIC50 on BRD4 BD2 is over 7.30; at BRD4 BD1, 6.00 to 7.00.

As for `CC(=O)N1c2ccc(-c3ccc(S(C)(=O)=O)cc3)nc2N(C(=O)OC(C)C)C[C@@H]1C` [Example I-254], the pIC50 was under 6.30 at BRD4 BD2 and 5.00 to 6.00 at BRD4 BD1.

For the compound `CC(=O)N1c2ccccc2N(C(=O)c2c(C)noc2C)C[C@@H]1C` [Example I-768], the results for the pIC50 on BRD4 BD2 and on BRD4 BD1 were under 6.30 and under 5.00, respectively.

In the case of `CC(=O)N1c2ccc(-c3ccc(S(C)(=O)=O)cc3)cc2N(C(=O)c2csc(-c3ccccc3)n2)C[C@@H]1C` [Example I-885], the pIC50 at BRD4 BD2 was under 6.30; on BRD4 BD1, under 5.00.

Regarding `CC(=O)N1c2ccc(-c3cnn(CCS(C)(=O)=O)c3)cc2N(C(=O)Oc2ccc(F)cc2)C[C@@H]1C` [Example I-1017], the pIC50 on BRD4 BD2 was under 6.30; at BRD4 BD1 it was 5.00 to 6.00.

Take `CC(=O)N1c2ccc(-c3cnn(C4COC4)c3)cc2N(C(=O)[C@H]2CC2(Cl)Cl)C[C@@H]1C` (single isomer, unassigned) [Example I-113]: the pIC50 at BRD4 BD2 is under 6.30; on BRD4 BD1, under 5.00.

`COc1ccccc1C(=O)N1C[C@H](C)N(C(C)=O)c2ccccc21` [Example I-702]: the pIC50 on BRD4 BD2 is under 6.30; on BRD4 BD1 it was under 5.00.

For the compound `CC(=O)N1c2ccccc2N(Cc2ccc(Cl)cc2Cl)C[C@@H]1C` [Example I-894], the results for the pIC50 at BRD4 BD2 and at BRD4 BD1 were under 6.30 and under 5.00, respectively.

With `CC(=O)N1c2ccc(-c3cnc4ccccn34)cc2N(C(=O)c2ccco2)C[C@@H]1C` [Example I-391], the pIC50 on BRD4 BD2 was 6.30 to 7.30; on BRD4 BD1, 5.00 to 6.00.

Regarding `CC(=O)N1c2ccc(-c3ccc(S(C)(=O)=O)cc3)cc2N(C(=O)NCc2ccc(C)cc2)C[C@@H]1C` [Example I-976], the results for the pIC50 at BRD4 BD2 and on BRD4 BD1 were under 6.30 and under 5.00, respectively.

`COC(=O)N1c2ccc(-c3ccc(N4CCCS4(=O)=O)cc3)cc2N(C(=O)C2CC2)C[C@@H]1C` [Example I-457]: the pIC50 was 6.30 to 7.30 at BRD4 BD2 and 5.00 to 6.00 on BRD4 BD1.

In the case of `COC(=O)N1c2ccc(-c3ccc(N4CCCS4(=O)=O)cc3)cc2N(C(=O)Oc2ccccn2)C[C@@H]1C` [Example I-1325], the results for the pIC50 at BRD4 BD2 and on BRD4 BD1 were 6.30 to 7.30 and 5.00 to 6.00, respectively.

Consider `CC(=O)N1c2ccc(-c3ccc(N4CCCC4)cc3)cc2N(C(=O)c2ccco2)C[C@@H]1C` [Example I-298], for which the pIC50 at BRD4 BD2 was 6.30 to 7.30; at BRD4 BD1 it was 5.00 to 6.00.

Turning to `C#CCOC(=O)N1C[C@H](C)N(C(C)=O)c2ccc(-c3ccc(S(C)(=O)=O)cc3)cc21` [Example I-240], the figures for the pIC50 on BRD4 BD2 and at BRD4 BD1 were 6.30 to 7.30 and 5.00 to 6.00, respectively.

Take `COc1ccc(OCC(=O)N2C[C@H](C)N(C(C)=O)c3ccccc32)cc1` [Example I-733]: the pIC50 on BRD4 BD2 was under 6.30; on BRD4 BD1, under 5.00.

Consider `CC(=O)N1c2ccc(-c3cnn(C4CC4)c3)cc2N(C(=O)Oc2ccc(C)cc2C)C[C@@H]1C` [Example I-516], for which the pIC50 at BRD4 BD2 was 6.30 to 7.30; on BRD4 BD1 it was 5.00 to 6.00.

`CC(=O)N1c2ccccc2N(C(=O)CCc2ccccc2)C[C@@H]1C` [Example I-696]: the pIC50 at BRD4 BD2 is under 6.30; on BRD4 BD1 it was under 5.00.

Regarding `CC(=O)N1c2ccccc2N(S(=O)(=O)c2ccccc2C#N)C[C@@H]1C` [Example I-943], the pIC50 is under 6.30 on BRD4 BD2 and under 5.00 at BRD4 BD1.

Take `CC(=O)N1c2ccc(-c3cnn(CC4CCS(=O)(=O)CC4)c3)cc2N(C(=O)C2CC2)C[C@@H]1C` [Example I-684]: the figures for the pIC50 on BRD4 BD2 and at BRD4 BD1 were 6.30 to 7.30 and 6.00 to 7.00, respectively.

Take `C[C@H]1CN(c2nc3ccccc3o2)c2cc(-c3cnn(C4CC4)c3)ccc2N1C(=O)C1CC1` [Example I-92, (S)-(4-(benzo[d]oxazol-2-yl)-6-(1-cyclopropyl-1H-pyrazol-4-yl)-2-methyl-3,4-dihydroquinoxalin-1 (2H)-yl)(cyclopropyl)methanone]: the pIC50 was 6.30 to 7.30 at BRD4 BD2 and 5.00 to 6.00 at BRD4 BD1.

For `CC(=O)N1c2ccccc2N(Cc2ccc3c(c2)OCO3)C[C@@H]1C` [Example I-920], the negative-log IC50 (pIC50) on BRD4 BD2 is under 6.30; on BRD4 BD1, under 5.00.

On to `CC(=O)N1c2ccc(-c3cnn(C4COC4)c3)cc2N(C(=O)C(C)C)C[C@@H]1C` [Example I-109, (S)-1-(4-acetyl-3-methyl-7-(1-(oxetan-3-yl)-1H-pyrazol-4-yl)-3,4-dihydroquinoxalin-1 (2H)-yl)-2-methylpropan-1-one], for which the negative-log IC50 (pIC50) at BRD4 BD2 is under 6.30; at BRD4 BD1, under 5.00.

Consider `CC(=O)N1c2ccc(-c3ccns3)cc2N(C(=O)c2ccco2)C[C@@H]1C` [Example I-434], for which the pIC50 at BRD4 BD2 is 6.30 to 7.30; on BRD4 BD1 it was 5.00 to 6.00.

Turning to `CC(=O)N1c2ccc(-c3ccc(S(C)(=O)=O)cc3)cc2N(C(=O)NCc2ccccc2Cl)C[C@@H]1C` [Example I-977], the pIC50 on BRD4 BD2 is under 6.30; at BRD4 BD1, under 5.00.

In the case of `COc1cccc2[nH]c(C(=O)N3CC(C)N(C(C)=O)c4ccc(-c5ccc(S(C)(=O)=O)cc5)cc43)cc12` (stereo not shown) [Example I-883], the pIC50 at BRD4 BD2 was under 6.30; at BRD4 BD1, under 5.00.

Regarding `CC(=O)N1c2ccc(-c3cnn(C4COC4)c3)cc2N(C(=O)OCC2CC2(F)F)C[C@@H]1C` (stereo partly drawn) [Example I-75, (3S)-(2,2-difluorocyclopropyl)methyl 4-acetyl-3-methyl-7-(1-(oxetan-3-yl)-1H-pyrazol-4-yl)-3,4-dihydroquinoxaline-1(2H)-carboxylate], the negative logarithm of the IC50 (pIC50) on BRD4 BD2 was under 6.30; on BRD4 BD1, 5.00 to 6.00.

With `CC(=O)N1c2ccc(-c3cnn(C4CC4)c3)cc2N(C(=O)Oc2cccnc2C)C[C@@H]1C` [Example I-514], the results for the pIC50 on BRD4 BD2 and at BRD4 BD1 were 6.30 to 7.30 and 5.00 to 6.00, respectively.

Turning to `CC(=O)N1c2ccc(-c3cnn(C4COC4)c3)cc2N(C(=O)C2CCC2)C[C@@H]1C` [Example I-11, (S)-1-(4-(cyclobutanecarbonyl)-2-methyl-6-(1-(oxetan-3-yl)-1H-pyrazol-4-yl)-3,4-dihydroquinoxalin-1(2H)-yl)ethanone], the pIC50 on BRD4 BD2 is 6.30 to 7.30; on BRD4 BD1, 5.00 to 6.00.

Regarding `CC(=O)N1c2ccc(-c3cnn(C4COC4)c3)cc2N(C(=O)OC2(C)CC2)C[C@@H]1C` [Example I-76, (S)-1-methylcyclopropyl 4-acetyl-3-methyl-7-(1-(oxetan-3-yl)-1H-pyrazol-4-yl)-3,4-dihydroquinoxaline-1(2H)-carboxylate], the pIC50 on BRD4 BD2 is 6.30 to 7.30; on BRD4 BD1, 5.00 to 6.00.

`CC(=O)N1c2ccccc2N(C(=O)COc2ccc(Cl)cc2)C[C@@H]1C` [Example I-732]: the figures for the pIC50 on BRD4 BD2 and on BRD4 BD1 were under 6.30 and under 5.00, respectively.

Turning to `COCCOC(=O)N1C[C@H](C)N(C(C)=O)c2ccc(-c3ccc(S(C)(=O)=O)cc3)cc21` [Example I-249], the values for the pIC50 at BRD4 BD2 and on BRD4 BD1 were under 6.30 and 5.00 to 6.00, respectively.

For the compound `CC(=O)N1c2ccccc2N(C(=O)c2ccc(F)cn2)C[C@@H]1C` [Example I-763], the pIC50 was under 6.30 at BRD4 BD2 and under 5.00 on BRD4 BD1.

With `CC(=O)N1c2ccccc2N(C(=O)c2ccc(-n3cccn3)cc2)C[C@@H]1C` [Example I-723], the pIC50 at BRD4 BD2 is under 6.30; at BRD4 BD1, under 5.00.

Take `CC(=O)N1c2ccc(-c3ncco3)cc2N(C(=O)c2ccco2)C[C@@H]1C` [Example I-491]: the pIC50 was 6.30 to 7.30 on BRD4 BD2 and 5.00 to 6.00 on BRD4 BD1.

Turning to `CCC[C@@H](C)CN1C[C@H](C)N(C(C)=O)c2ccccc21` [Example I-927], the values for the pIC50 on BRD4 BD2 and at BRD4 BD1 were under 6.30 and under 5.00, respectively.

On to `CC(=O)N1c2ccc(C(=O)c3ccccc3)cc2N(C(=O)c2ccco2)C[C@@H]1C` [Example I-408], for which the pIC50 was under 6.30 on BRD4 BD2 and 5.00 to 6.00 on BRD4 BD1.

For `CC(=O)N1c2ccccc2N(C(=O)c2cccc3ccccc23)C[C@@H]1C` [Example I-719], the pIC50 at BRD4 BD2 is under 6.30; on BRD4 BD1, under 5.00.

Consider `CC(=O)N1c2ccc(-c3cnn(C4COC4)c3)cc2N(C(=O)C2CCOCC2)C[C@@H]1C` [Example I-110, (S)-1-(2-methyl-6-(1-(oxetan-3-yl)-1H-pyrazol-4-yl)-4-(tetrahydro-2H-pyran-4-carbonyl)-3,4-dihydroquinoxalin-1(2H)-yl)ethanone], for which the negative-log IC50 (pIC50) is under 6.30 at BRD4 BD2 and under 5.00 at BRD4 BD1.
